Data published in patent US7550558B2, “Antimicrobial peptides and methods for identifying and using such peptides” (priority 2001, dated 2009).
No end group written: not given here.

Key:
[1] = test system: Micrococcus luteus
[2] = test system: Aspergillus nidulans
[3] = test system: Escherichia coli
[4] = test system: Candida albicans
[5] = test system: Staphylococcus aureus
[6] = literature; cited from earlier work

Row | Sequence | concentrations with no antibacterial effect (MIC) [1] [µg/mL] | minimum inhibitory concentration (MIC) [2] [µg/mL] | concentrations with no antibacterial effect (MIC) [3] [µg/mL] | minimum inhibitory concentration (MIC) [4] [µg/mL] | concentrations with no antibacterial effect (MIC) [5] [µg/mL] | cytotoxic property [6] | hemolytic property [6]
1 | HPLKQYWWRPSI [PW2, HPLKQYWWRPSI] | > 200 | 25 to 50 | > 200 | 12.5 to 25 | > 200 | – | –
2 | ILPWLWPWWPWRR [indolicidin] | – | – | – | – | – | cytotoxic | hemolytic
3 | VRRFPWWWPFLRR [tritrpticin] | – | – | – | – | – | cytotoxic | hemolytic
